Measured values from PubChem BioAssay AID256 (DTP/NCI, 2004).
Several values for one entry are separate records, joined by “and”; a condition that tells them apart may be missing. Equal entries are not always repeated. Toxic doses and inconclusive results are not listed.

Test system: CD2F1 mice, L1210 leukemia ip, survival T/C
Assay: NCI In Vivo Anticancer Drug Screen. Data for tumor model L1210 Leukemia (intraperitoneal) in CD2F1 (CDF1) mice
Details: higher = longer survival
Method: The antitumor activity of compounds was measured in mice bearing transplantable tumors. Survival or tumor size were measured and the results are expressed as the measurement made in the treated group (T) divided by the measurement made in the vehicle treated control group (C). The tumor model used in this assay is L1210 Leukemia (intraperitoneal) in CD2F1 (CDF1) mice

[1] = endpoint: mean survival time, dose: 50.0 mg/kg/injection, schedule: Q01DX009 (ip), vehicle: Klucel (hydroxypropylcellulose) (HPC)
[2] = endpoint: mean survival time, dose: 100.0 mg/kg/injection, schedule: Q01DX009 (ip), vehicle: Klucel (hydroxypropylcellulose) (HPC)
[3] = endpoint: mean survival time, dose: 50.0 mg/kg/injection, schedule: Q01DX009 (ip), vehicle: saline with Tween-80
[4] = endpoint: mean survival time, dose: 100.0 mg/kg/injection, schedule: Q01DX009 (ip), vehicle: saline with Tween-80
[5] = endpoint: mean survival time, dose: 200.0 mg/kg/injection, schedule: Q01DX009 (ip), vehicle: saline with Tween-80
[6] = endpoint: mean survival time, dose: 100.0 mg/kg/injection, schedule: Q04DX003 (ip), vehicle: saline with Tween-80
[7] = endpoint: mean survival time, dose: 200.0 mg/kg/injection, schedule: Q04DX003 (ip), vehicle: saline with Tween-80
[8] = endpoint: mean survival time, dose: 400.0 mg/kg/injection, schedule: Q04DX003 (ip), vehicle: saline with Tween-80
[9] = endpoint: mean survival time, dose: 12.5 mg/kg/injection, schedule: Q01DX009 (ip), vehicle: saline with Tween-80
[10] = endpoint: mean survival time, dose: 400.0 mg/kg/injection, schedule: Q01DX009 (ip), vehicle: saline with Tween-80
[11] = endpoint: median survival time, dose: 25.0 mg/kg/injection, schedule: Q01DX005 (ip), vehicle: saline with Tween-80
[12] = endpoint: median survival time, dose: 50.0 mg/kg/injection, schedule: Q01DX005 (ip), vehicle: saline with Tween-80
[13] = endpoint: median survival time, dose: 100.0 mg/kg/injection, schedule: Q01DX005 (ip), vehicle: saline with Tween-80
[14] = endpoint: median survival time, dose: 200.0 mg/kg/injection, schedule: Q01DX005 (ip), vehicle: saline with Tween-80

## O=P1(Cc2ccccc2)C(c2ccccc2)=C(O)C2CCCC21 (stereo not drawn)
[1]
  T/C: 97 % of control
[2]
  T/C: 97 % of control
endpoint: mean survival time, dose: 200.0 mg/kg/injection, schedule: Q01DX009 (ip), vehicle: Klucel (hydroxypropylcellulose) (HPC)
  T/C: 89 % of control

## CC(=O)Nc1cc(Cl)ccc1C(=O)O
[3]
  T/C: 96 % of control
[4]
  T/C: 98 % of control
[5]
  T/C: 100 % of control

## COc1ccc([N+](=O)[O-])cc1CO/N=C(/CCC(=O)O)C(=O)O
[6]
  T/C: 101 % of control
[7]
  T/C: 106 % of control
[8]
  T/C: 101 % of control

## CC(C[P+](c1ccccc1)(c1ccccc1)c1ccccc1)C(O)(C(=O)c1ccccc1)c1ccccc1 (stereo not drawn)
endpoint: mean survival time, dose: 6.25 mg/kg/injection, schedule: Q01DX001 (ip), vehicle: saline with Tween-80
  T/C: 108 % of control
endpoint: mean survival time, dose: 6.25 mg/kg/injection, schedule: Q01DX009 (ip), vehicle: saline with Tween-80
  T/C: 95 % of control
endpoint: mean survival time, dose: 12.5 mg/kg/injection, schedule: Q01DX001 (ip), vehicle: saline with Tween-80
  T/C: 103 % of control
[9]
  T/C: 110 % of control
endpoint: mean survival time, dose: 25.0 mg/kg/injection, schedule: Q01DX001 (ip), vehicle: saline with Tween-80
  T/C: 108 % of control

## c1ccc([Si](c2ccccc2)(c2cccs2)c2cccs2)cc1
[6]
  T/C: 102 % of control
[7]
  T/C: 106 % of control
[8]
  T/C: 114 % of control

## Nc1nc2c(ncn2-c2ccccc2Br)c(=O)[nH]1
endpoint: mean survival time, dose: 75.0 mg/kg/injection, schedule: Q01DX001 (ip), vehicle: saline with Tween-80
  T/C: 101 % of control
endpoint: mean survival time, dose: 150.0 mg/kg/injection, schedule: Q01DX001 (ip), vehicle: saline with Tween-80
  T/C: 100 % of control
endpoint: mean survival time, dose: 300.0 mg/kg/injection, schedule: Q01DX001 (ip), vehicle: saline with Tween-80
  T/C: 101 % of control

## CCCCCN1C(=O)CCC1=O
[6]
  T/C: 112 % of control
[7]
  T/C: 109 % of control
[8]
  T/C: 104 % of control

## O[C@@H](c1ccccc1)[C@@H](c1ccccc1)N1CCCCC1
endpoint: mean survival time, dose: 50.0 mg/kg/injection, schedule: Q04DX003 (ip), vehicle: saline
  T/C: 103 % of control
endpoint: mean survival time, dose: 100.0 mg/kg/injection, schedule: Q01DX001 (ip), vehicle: saline
  T/C: 96 % of control
endpoint: mean survival time, dose: 100.0 mg/kg/injection, schedule: Q04DX003 (ip), vehicle: saline
  T/C: 108 % of control
endpoint: mean survival time, dose: 200.0 mg/kg/injection, schedule: Q01DX001 (ip), vehicle: saline
  T/C: 104 % of control
endpoint: mean survival time, dose: 200.0 mg/kg/injection, schedule: Q04DX003 (ip), vehicle: saline
  T/C: 98 % of control

## CCN(CC)CC[C-]=O.[NH-]CC[NH-].[Pd]
endpoint: mean survival time, dose: 3.13 mg/kg/injection, schedule: Q04DX003 (ip), vehicle: water
  T/C: 101 % of control
endpoint: mean survival time, dose: 6.25 mg/kg/injection, schedule: Q04DX003 (ip), vehicle: water
  T/C: 101 % of control
endpoint: mean survival time, dose: 12.5 mg/kg/injection, schedule: Q04DX003 (ip), vehicle: water
  T/C: 101 % of control
endpoint: mean survival time, dose: 25.0 mg/kg/injection, schedule: Q04DX003 (ip), vehicle: water
  T/C: 93 % of control
endpoint: mean survival time, dose: 50.0 mg/kg/injection, schedule: Q04DX003 (ip), vehicle: water
  T/C: 93 % of control

## O=[N+]([O-])c1c(Br)sc(Br)c1[N+](=O)[O-]
[9]
  T/C: 97 % of control
endpoint: mean survival time, dose: 12.5 mg/kg/injection, schedule: Q04DX003 (ip), vehicle: saline with Tween-80
  T/C: 101 % of control
endpoint: mean survival time, dose: 25.0 mg/kg/injection, schedule: Q01DX009 (ip), vehicle: saline with Tween-80
  T/C: 88 % of control
endpoint: mean survival time, dose: 25.0 mg/kg/injection, schedule: Q04DX003 (ip), vehicle: saline with Tween-80
  T/C: 103 % of control
[3]
  T/C: 95 % of control
endpoint: mean survival time, dose: 50.0 mg/kg/injection, schedule: Q04DX003 (ip), vehicle: saline with Tween-80
  T/C: 109 % of control

## COc1ccc(C(=O)CC(C#N)c2ccc3c(c2)OCO3)cc1OC (stereo not drawn)
[6]
  T/C: 93 % of control
[7]
  T/C: 91 % of control
[8]
  T/C: 93 % of control

## CC(=O)OCC(C)CCC1OC2CC3C4CCC5CC(OC(C)=O)CCC5(C)C4CCC3(C)C2C1C (stereo not drawn)
endpoint: mean survival time, dose: 100.0 mg/kg/injection, schedule: Q01DX001 (ip), vehicle: saline with Tween-80
  T/C: 100 % of control
endpoint: mean survival time, dose: 200.0 mg/kg/injection, schedule: Q01DX001 (ip), vehicle: saline with Tween-80
  T/C: 101 % of control
endpoint: mean survival time, dose: 400.0 mg/kg/injection, schedule: Q01DX001 (ip), vehicle: saline with Tween-80
  T/C: 94 % of control

## Cc1ccc(S(=O)(=O)NC(=O)c2ccccc2)cc1
[4]
  T/C: 95 % of control
[6]
  T/C: 98 % of control
[5]
  T/C: 98 % of control
[7]
  T/C: 102 % of control
[10]
  T/C: 95 % of control
[8]
  T/C: 101 % of control

## CCCCCCCCN1C(=O)CCC1=O
endpoint: mean survival time, dose: 100.0 mg/kg/injection, schedule: Q04DX002 (ip), vehicle: saline with Tween-80
  T/C: 103 % of control
endpoint: mean survival time, dose: 200.0 mg/kg/injection, schedule: Q04DX002 (ip), vehicle: saline with Tween-80
  T/C: 91 % of control

## COc1ccc(Cl)[n+]([O-])n1
endpoint: mean survival time, dose: 3.12 mg/kg/injection, schedule: Q01DX009 (ip), vehicle: Klucel (hydroxypropylcellulose) (HPC)
  T/C: 94 % of control and 103 % of control
endpoint: mean survival time, dose: 6.25 mg/kg/injection, schedule: Q01DX009 (ip), vehicle: Klucel (hydroxypropylcellulose) (HPC)
  T/C: 97 % of control and 101 % of control
endpoint: mean survival time, dose: 12.5 mg/kg/injection, schedule: Q01DX009 (ip), vehicle: Klucel (hydroxypropylcellulose) (HPC)
  T/C: 96 % of control and 106 % of control
endpoint: mean survival time, dose: 25.0 mg/kg/injection, schedule: Q01DX009 (ip), vehicle: Klucel (hydroxypropylcellulose) (HPC)
  T/C: 98 % of control and 106 % of control
[1]
  T/C: 94 % of control and 101 % of control
[2]
  T/C: 101 % of control and 104 % of control

## CCOC(CS(=O)(=O)CC(N)=O)OCC
[6]
  T/C: 98 % of control
[7]
  T/C: 93 % of control
[8]
  T/C: 104 % of control

## COC(=O)c1cn[nH]c1/N=N/N(C)C
endpoint: mean survival time, dose: 88.0 mg/kg/injection, schedule: Q01DX009 (ip), vehicle: other
  T/C: 175 % of control
endpoint: mean survival time, dose: 133.0 mg/kg/injection, schedule: Q01DX009 (ip), vehicle: other
  T/C: 164 % of control
endpoint: mean survival time, dose: 300.0 mg/kg/injection, schedule: Q01DX009 (ip), vehicle: other
  T/C: 88 % of control

## COc1cc(C2c3cc4c(cc3[C@@H](OC)[C@H]3COC(=O)C23)OCO4)cc(OC)c1O (stereo partly drawn)
endpoint: median survival time, dose: 1.25 mg/kg/injection, schedule: Q01DX009 (ip), vehicle: saline with Tween-80
  T/C: 108 % of control
endpoint: median survival time, dose: 2.5 mg/kg/injection, schedule: Q01DX009 (ip), vehicle: saline with Tween-80
  T/C: 104 % of control
endpoint: median survival time, dose: 5.0 mg/kg/injection, schedule: Q01DX009 (ip), vehicle: saline with Tween-80
  T/C: 105 % of control
endpoint: median survival time, dose: 10.0 mg/kg/injection, schedule: Q01DX009 (ip), vehicle: saline with Tween-80
  T/C: 103 % of control

## CS(=O)(=O)OCC1OC(n2ccc(NC(=O)c3ccccc3)nc2=O)CC1OS(C)(=O)=O (stereo not drawn)
endpoint: median survival time, dose: 12.5 mg/kg/injection, schedule: Q01DX005 (ip), vehicle: saline with Tween-80
  T/C: 108 % of control
[11]
  T/C: 100 % of control
[12]
  T/C: 107 % of control
[13]
  T/C: 103 % of control
[14]
  T/C: 97 % of control

## Nc1ncnc2c1c1c(=S)[nH]c(=O)[nH]c1n2C1OC(CO)C(O)C1O (stereo not drawn)
endpoint: mean survival time, dose: 25.0 mg/kg/injection, schedule: Q01DX005 (ip), vehicle: distilled water + Tween-80
  T/C: 101 % of control
endpoint: mean survival time, dose: 50.0 mg/kg/injection, schedule: Q01DX005 (ip), vehicle: distilled water + Tween-80
  T/C: 106 % of control
endpoint: mean survival time, dose: 100.0 mg/kg/injection, schedule: Q01DX005 (ip), vehicle: distilled water + Tween-80
  T/C: 104 % of control

## O=c1cc(Cl)c(=O)[nH][nH]1
endpoint: mean survival time, dose: 100.0 mg/kg/injection, schedule: Q01DX001 (ip), vehicle: other
  T/C: 104 % of control
[4]
  T/C: 92 % of control
[6]
  T/C: 94 % of control
endpoint: mean survival time, dose: 200.0 mg/kg/injection, schedule: Q01DX001 (ip), vehicle: other
  T/C: 97 % of control
[5]
  T/C: 94 % of control
[7]
  T/C: 94 % of control
endpoint: mean survival time, dose: 400.0 mg/kg/injection, schedule: Q01DX001 (ip), vehicle: other
  T/C: 98 % of control
[10]
  T/C: 97 % of control
[8]
  T/C: 96 % of control

## OC1OCC(COc2ccc(Cl)cc2)OC1O (stereo not drawn)
[11]
  T/C: 102 % of control
[12]
  T/C: 102 % of control
[13]
  T/C: 115 % of control
endpoint: median survival time, dose: 144.0 mg/kg/injection, schedule: Q01DX005 (ip), vehicle: saline with Tween-80
  T/C: 102 % of control
[14]
  T/C: 117 % of control
endpoint: median survival time, dose: 240.0 mg/kg/injection, schedule: Q01DX005 (ip), vehicle: saline with Tween-80
  T/C: 101 % of control
endpoint: median survival time, dose: 400.0 mg/kg/injection, schedule: Q01DX005 (ip), vehicle: saline with Tween-80
  T/C: 96 % of control
